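Values below derive from 48-hour exposures of cells grown in 96-well plates, with endpoints linearly interpolated between the two concentrations bracketing the appropriate inhibition level. Here, GI50 denotes the concentration required for 50% inhibition of growth. TGI marks complete inhibition of growth.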
Legend:
Experiment in all cases: NCI anticancer screen, dose series, 48 h
[1] = system: RPMI-8226 leukemia
[2] = system: U251 CNS
[3] = system: HOP-92 NSCLC
[4] = system: HS 578T breast
[5] = system: NCI-H23 lung
[6] = system: CCRF-CEM leukemia
[7] = system: NCI-H460 lung
[8] = system: A498 renal
[9] = system: NCI-H522 lung
[10] = system: OVCAR-3 ovarian
[11] = system: KM12 colon
[12] = system: HCC-2998 colon
[13] = system: SF-295 CNS
[14] = system: BT-549 breast
[15] = system: SNB-75 CNS
[16] = system: HCT-15 colon
[17] = system: HCT-116 colon
[18] = system: SN12C renal
[19] = system: HOP-62 NSCLC
[20] = system: NCI-H226 lung
[21] = system: SR leukemia
[22] = system: SK-MEL-5 melanoma
[23] = system: SW-620 colon
[24] = system: OVCAR-4 ovarian
[25] = system: T-47D breast
[26] = system: OVCAR-5 ovarian
[27] = system: MCF7 breast
[28] = system: TK-10 renal
[29] = system: NCI/ADR-RES ovarian
[30] = system: CAKI-1 renal
[31] = system: SK-MEL-28 melanoma
[32] = system: UO-31 renal
[33] = system: HL-60(TB) leukemia
[34] = system: IGROV1 ovarian
[35] = system: PC-3 prostate
[36] = system: UACC-62 melanoma
[37] = system: MOLT-4 leukemia
[38] = system: M14 melanoma
[39] = system: SK-OV-3 ovarian
[40] = system: LOX IMVI melanoma
[41] = system: MDA-MB-231 breast
[42] = system: SF-539 CNS
[43] = system: HT29 colon
[44] = system: EKVX NSCLC
[45] = system: 786-0 renal
[46] = system: UACC-257 melanoma
[47] = system: ACHN renal
[48] = system: COLO 205 colon
[49] = system: RXF 393 renal
[50] = system: DU-145 prostate
[51] = system: OVCAR-8 ovarian
[52] = system: SK-MEL-2 melanoma
[53] = system: MALME-3M melanoma
[54] = system: A549 NSCLC
[55] = system: K-562 leukemia
[56] = system: SF-268 CNS
[57] = system: SNB-19 CNS

Nc1nc2cc(O)ccc2n2cc3c(F)cccc3c12
GI50 [1]: 3.37 µM
TGI [1]: > 100 µM
GI50 [2]: 2.64 µM
TGI [2]: > 100 µM
GI50 [3]: 2.43 µM
TGI [3]: > 85.6 µM
GI50 [4]: 3.68 µM
TGI [4]: > 100 µM
GI50 [5]: 3.91 µM
TGI [5]: > 100 µM
GI50 [6]: 2.28 µM
TGI [6]: > 100 µM
GI50 [7]: 0.402 µM
TGI [7]: > 100 µM
GI50 [8]: 10.1 µM
TGI [8]: > 100 µM
GI50 [9]: 1.22 µM
TGI [9]: > 100 µM
GI50 [10]: 6.21 µM
TGI [10]: > 100 µM
GI50 [11]: 0.654 µM
TGI [11]: > 100 µM
GI50 [12]: > 20.4 µM
TGI [12]: > 100 µM
GI50 [13]: 2.46 µM
TGI [13]: > 100 µM
GI50 [14]: 6.92 µM
TGI [14]: > 100 µM
GI50 [15]: 1.44 µM
TGI [15]: 7.34 µM
GI50 [16]: 0.62 µM
TGI [16]: > 100 µM
GI50 [17]: 0.724 µM
TGI [17]: > 100 µM
GI50 [18]: 2.22 µM
TGI [18]: > 100 µM
GI50 [19]: 2.14 µM
TGI [19]: > 100 µM
GI50 [20]: 2.97 µM
TGI [20]: > 100 µM
GI50 [21]: 0.462 µM
TGI [21]: 32.8 µM
GI50 [22]: 0.334 µM
TGI [22]: > 100 µM
GI50 [23]: 0.493 µM
TGI [23]: > 100 µM
GI50 [24]: 6.81 µM
TGI [24]: > 100 µM
GI50 [25]: 5.89 µM
TGI [25]: > 100 µM
GI50 [26]: 9.85 µM
TGI [26]: > 100 µM
GI50 [27]: 1.26 µM
TGI [27]: > 100 µM
GI50 [28]: > 20.9 µM
TGI [28]: > 100 µM
GI50 [29]: 0.964 µM
TGI [29]: > 100 µM
GI50 [30]: 0.733 µM
TGI [30]: > 93.1 µM
GI50 [31]: 4.86 µM
TGI [31]: > 100 µM
GI50 [32]: 0.917 µM
TGI [32]: > 79.8 µM
GI50 [33]: 1.23 µM
TGI [33]: > 100 µM
GI50 [34]: 1.67 µM
TGI [34]: > 100 µM
GI50 [35]: 3.67 µM
TGI [35]: > 100 µM
GI50 [36]: 1.23 µM
TGI [36]: > 100 µM
GI50 [37]: 1.51 µM
TGI [37]: > 100 µM
GI50 [38]: 1.24 µM
TGI [38]: > 100 µM
GI50 [39]: 2.37 µM
TGI [39]: > 100 µM
GI50 [40]: 1.02 µM
TGI [40]: > 100 µM
GI50 [41]: 4.74 µM
TGI [41]: > 100 µM
GI50 [42]: 1.31 µM
TGI [42]: > 100 µM
GI50 [43]: 4.46 µM
TGI [43]: > 100 µM
GI50 [44]: 3.38 µM
TGI [44]: > 100 µM
GI50 [45]: 3.56 µM
TGI [45]: > 100 µM
GI50 [46]: 4.37 µM
TGI [46]: > 100 µM
GI50 [47]: 1.85 µM
TGI [47]: > 100 µM
GI50 [48]: 5.86 µM
TGI [48]: > 100 µM
GI50 [49]: 1.75 µM
TGI [49]: 26.8 µM
GI50 [50]: 6.38 µM
TGI [50]: > 100 µM
GI50 [51]: 3.47 µM
TGI [51]: > 100 µM
GI50 [52]: 3.76 µM
TGI [52]: > 100 µM
GI50 [53]: 3.78 µM
TGI [53]: > 100 µM
GI50 [54]: 1.27 µM
TGI [54]: > 100 µM
GI50 [55]: 0.447 µM
TGI [55]: > 100 µM
GI50 [56]: 1.98 µM
TGI [56]: > 100 µM
GI50 [57]: 2.31 µM
TGI [57]: > 100 µM

Cc1ccc(C2=NN(c3ccc(S(C)(=O)=O)cc3)C(=O)CC2)cc1
GI50 [1]: 1.62 µM
TGI [1]: > 100 µM
GI50 [2]: 0.579 µM
TGI [2]: > 100 µM
GI50 [3]: 1.02 µM
TGI [3]: > 28.8 µM
GI50 [4]: 2.24 µM
TGI [4]: > 100 µM
GI50 [5]: 2.13 µM
TGI [5]: > 100 µM
GI50 [6]: 0.843 µM
TGI [6]: > 100 µM
GI50 [7]: 0.402 µM
TGI [7]: > 100 µM
GI50 [8]: 0.282 µM
TGI [8]: 7.73 µM
GI50 [9]: 0.225 µM
TGI [9]: 1.04 µM
GI50 [10]: 0.349 µM
TGI [10]: 2.35 µM
GI50 [11]: 0.452 µM
TGI [11]: > 100 µM
GI50 [12]: 3.1 µM
TGI [12]: > 100 µM
GI50 [13]: 0.396 µM
TGI [13]: 16.8 µM
GI50 [14]: 0.569 µM
TGI [14]: > 100 µM
GI50 [15]: 0.542 µM
TGI [15]: 9.25 µM
GI50 [16]: 0.74 µM
TGI [16]: > 100 µM
GI50 [17]: 0.431 µM
TGI [17]: > 85.4 µM
GI50 [18]: 5.57 µM
TGI [18]: > 100 µM
GI50 [19]: 1.78 µM
TGI [19]: > 100 µM
GI50 [20]: 42.3 µM
TGI [20]: > 100 µM
GI50 [21]: 0.4 µM
TGI [21]: > 100 µM
GI50 [22]: 0.633 µM
TGI [22]: > 42.1 µM
GI50 [23]: 0.368 µM
TGI [23]: > 100 µM
GI50 [24]: > 27.3 µM
TGI [24]: > 100 µM
GI50 [25]: 3.82 µM
TGI [25]: > 100 µM
GI50 [26]: 10.1 µM
TGI [26]: > 100 µM
GI50 [27]: 1.3 µM
TGI [27]: > 100 µM
GI50 [28]: 12.8 µM
TGI [28]: > 100 µM
GI50 [29]: 0.322 µM
TGI [29]: > 100 µM
GI50 [30]: 1.64 µM
TGI [30]: > 100 µM
GI50 [31]: 2.58 µM
TGI [31]: > 100 µM
GI50 [32]: 7.85 µM
TGI [32]: > 100 µM
GI50 [33]: 0.525 µM
GI50 [34]: 1.82 µM
TGI [34]: > 100 µM
GI50 [35]: 1.78 µM
TGI [35]: > 100 µM
GI50 [36]: 0.493 µM
TGI [36]: > 100 µM
GI50 [37]: 0.875 µM
TGI [37]: > 100 µM
GI50 [38]: 0.419 µM
TGI [38]: > 100 µM
GI50 [39]: 1.57 µM
TGI [39]: 21.5 µM
GI50 [40]: 0.806 µM
TGI [40]: > 100 µM
GI50 [41]: 1.37 µM
TGI [41]: > 100 µM
GI50 [42]: 1.45 µM
TGI [42]: 23.4 µM
GI50 [43]: 0.349 µM
TGI [43]: > 32.9 µM
GI50 [44]: 3.84 µM
TGI [44]: > 100 µM
GI50 [45]: 7.26 µM
TGI [45]: > 100 µM
GI50 [46]: 3.4 µM
TGI [46]: > 100 µM
GI50 [47]: 8.52 µM
TGI [47]: > 100 µM
GI50 [48]: 0.587 µM
TGI [48]: 5.16 µM
GI50 [49]: 1.11 µM
TGI [49]: > 26.1 µM
GI50 [50]: 2.48 µM
TGI [50]: > 100 µM
GI50 [51]: 1.35 µM
TGI [51]: > 100 µM
GI50 [52]: 0.541 µM
TGI [52]: > 100 µM
GI50 [53]: 51.9 µM
TGI [53]: > 100 µM
GI50 [54]: 0.615 µM
TGI [54]: > 100 µM
GI50 [55]: 0.408 µM
TGI [55]: > 100 µM
GI50 [56]: 6.25 µM
TGI [56]: > 100 µM
GI50 [57]: 6.42 µM
TGI [57]: > 100 µM

From PubChem BioAssay (NCI)
